The values that follow come from article PMC5760531, “Action Potential Recording and Pro-arrhythmia Risk Analysis in Human Ventricular Trabeculae” (Frontiers in Physiology, 2018).

Structures are written as SMILES.

This data set has as its system human ventricular trabeculae. As to the kind of experiment: Action potential recording and pro-arrhythmic score analysis in human ventricular trabeculae (hVT).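 Also: sharp microelectrode action potential recordings at 37°C in Tyrode-perfused trabeculae, 4 cumulative concentrations each applied 31 min, values averaged over last 30 APs, vehicle 0.1% DMSO as control.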 The following applies: at 91-fold hETPC.

For the compound `COc1c(N2C[C@@H]3CCCN[C@@H]3C2)c(F)cc2c(=O)c(C(=O)O)cn(C3CC3)c12` [MOXIFLOXACIN, Moxifloxacin], the EAD detection entry is recorded as “only detected in one trabecula”.
